Experiments:
[1] = Measurement of mRNA encapsulation in lipid nanoparticles (Quant-iT Ribogreen); format: physicochemical; conditions: for % encapsulation mRNA Leptin: Leptin mRNA in LNP
Procedure, shortened: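 LNPs were formed by T-junction mixing of ethanolic lipids (cationic lipid:DSPC:cholesterol:PEG lipid 40:10:38:2) with mRNA in citrate pH 5.8–6.0 at N:P 4:1, then dialysed against PBS overnight at 4 °C. RiboGreen fluorescence (ex 480/em 520 nm) was read on samples diluted 400–2,000-fold in TE with or without 0.75% Triton X-100 and quantified against standard curves. Encapsulation % = (Triton − buffer concentration)/Triton concentration.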

hFIX = test: Human Factor IX ELISA after IV injection of encapsulated hFIX mRNA; format: in vivo; conditions: 0.12 mpk, C57 mice, @ 24 h
Procedure: An sheep anti-human Factor IX antibody (Cat# FIX-EIA-C) from Enzyme Research Laboratories is coated on 384-well white microtiter plates overnight at a concentration of 5 ug/ml, then blocked for assay using KPL blocker (Cat#50-82-00). Then, plasma samples are diluted in a casein-based sample diluent and incubated on the plate with biological controls and a standard curve created from recombinant protein (Cat#HCIX-0040). The plate is then washed to remove unbound material. A biotinylated sheep anti-human Factor IX antibody (Cat# FIX-EIA-D) from Enzyme Research Laboratories is then added to the plate at 0.6 ug/ml to detect human Factor IX protein bound by the capture antibody. The plate is washed again and a streptavidin-conjugated horseradish peroxidase reagent (Cat#21140) diluted 1:1250, is incubated on the plate. A third wash step is performed and chemiluminescent reagents (Cat#1859678 & Cat#18596789) are combined and added to the plate and immediately read by a capable plate reader using all wavelengths and a 50 millisecond integration time. Unknown samples are interpolated off the human recombinant Factor IX standard curve.

[2] = Percentage of encapsulated RNA and RNA concentration of replicon liposomes (Quant-iT RiboGreen); format: physicochemical; conditions: for %E (% entrapment) 1st IM / Conc (Concentration of RNA) 1st IM: RSV-F replicon RNA LNP prepared for 1st immunization; for %E (% entrapment) 2nd IM / Conc (Concentration of RNA) 2nd IM: RSV-F replicon RNA LNP prepared for 2nd immunization
Procedure: RNA was encapsulated in liposomes made essentially by the method of Geall et al. (2012) PNAS vol. 109 (36): 14604-14609, Jeffs et al. (2005) Pharmaceutical Research 22 (3):362-372, and Maurer et al. (2001) Biophysical Journal, 80: 2310-2326 The liposomes were made of 10% DSPC (zwitterionic), 40% cationic lipid, 48% cholesterol and 2% PEG-conjugated DMG (2 kDa PEG). These proportions refer to the % moles in the total liposome.
Briefly, lipids were dissolved in ethanol (2 ml), a RNA replicon was dissolved in buffer (2 ml, 100 mM sodium citrate, pH 6) and these were mixed with 2 ml of buffer followed by 1 hour of equilibration. The mixture was then dialized overnight against 1×PBS. The resulting product contained liposomes, with ˜70-95% encapsulation efficiency. For in vitro and in vivo experiments formulations were diluted to the required RNA concentration with 1×PBS.
The percentage of encapsulated RNA and RNA concentration were determined by Quant-iT RiboGreen RNA reagent kit (Invitrogen), following manufacturer's instructions. The ribosomal RNA standard provided in the kit was used to generate a standard curve. Liposomes were diluted 10× or 100× in 1×TE buffer (from kit) before addition of the dye. Separately, liposomes were diluted 10× or 100× in 1×TE buffer containing 0.5% Triton X before addition of the dye (to disrupt the liposomes and thus to assay total RNA). Thereafter an equal amount of dye was added to each solution and then ˜180 μL of each solution after dye addition was loaded in duplicate into a 96 well tissue culture plate. The fluorescence (Ex 485 nm, Em 528 nm) was read on a microplate reader. All liposome formulations were dosed in vivo based on the encapsulated amount of RNA.
% entrapment (% E), Concentration of RNA (Conc), particle size measured by DLS, and polydispersity reported by DLS of LNPs prepared with different cationic lipids

Compound | % Encap. ([1]; FLuc mRNA) | % Encap. ([1]; Gluc mRNA) | % encapsulation mRNA Leptin [1] | % Encap. ([1]; hFIX mRNA) | % Encap. ([1]; hLeptin mRNA) | % Encap. ([1]; mEPO mRNA) | Expression of protein following IV injection of encapsulated mRNA: hFIX (hFIX) | %E (% entrapment) 1st IM [2] | Conc (Concentration of RNA) 1st IM [2] | %E (% entrapment) 2nd IM [2] | Conc (Concentration of RNA) 2nd IM [2]
CCCCC/C=C\C/C=C\CCCCCCCC(=O)OCC(COC(=O)CCC(OCCCCCCCC)OCCCCCCCC)COC(=O)OCCCN(CC)CC (stereo not shown) [Example 13, (9Z,12Z)-3-((4,4-bis(octyloxy)butanoyl)oxy)-2-((((3-(diethylamino)propoxy)carbonyl)oxy)methyl)propyl octadeca-9,12-dienoate] | 98.3% | 97.2% | 90.7% | 96.4% | 95.4% | 98.5% | 292.7 ng/mL |  |  |  | 
CCCCC/C=C\C/C=C\CCCCCCCC(=O)OCC(COC(=O)CCC(OCCCCCCCC)OCCCCCCCC)COC(=O)OCC1CCCN(CC)C1 (stereo not shown) [Example 15, (9Z,12Z)-3-((4,4-bis(octyloxy)butanoyl)oxy)-2-(((((1-ethylpiperidin-3-yl)methoxy)carbonyl)oxy)methyl)propyl octadeca-9,12-dienoate] | 98.1% | 98.1% | 97.3% | 98.4% | 97.3% | 98.3% |  | 94.26% | 10.203 µg/mL | 96.64% | 10.091 µg/mL
CCCCC/C=C\C/C=C\CCCCCCCC(=O)OCC(COC(=O)CCCCCCC/C=C\C/C=C\CCCCC)COC(=O)C1(C)CCN(C)C1 (stereo not shown) [Example 1, (9Z,9′Z,12Z,12′Z)-2-(((1,3-dimethylpyrrolidine-3-carbonyl)oxy)methyl)propane-1,3-diyl bis(octadeca-9,12-dienoate)] | 86.8% | 92.3% | 96.7% | 89.5% | 96.7% | 94.7% | 147.7 ng/mL | 96.21% | 10.352 µg/mL | 91.99% | 11.279 µg/mL
